Test results taken from patent publication US9084424B2, “N-benzyl heterocyclic carboxamides” (BAYER INTELLECTUAL PROPERTY GMBH, priority 2010, dated 2015).

Assays:
[1] = log P by HPLC on reversed-phase column (EEC Directive 79/831 Annex V.A8); assay type: physicochemical; details: 0.1% aqueous formic acid and acetonitrile, linear gradient 10% to 90% acetonitrile
Method: In table 1, the log P values were determined in accordance with EEC Directive 79/831 Annex V.A8 by HPLC (High Performance Liquid Chromatography) on a reversed-phase column (C 18), using the method described below: Temperature: 40° C.; Mobile phases: 0.1% aqueous formic acid and acetonitrile; linear gradient from 10% acetonitrile to 90% acetonitrile. Calibration was carried out using unbranched alkan-2-ones (comprising 3 to 16 carbon atoms) with known log P values (determination of the log P values by the retention times using linear interpolation between two successive alkanones). lambda-max-values were determined using UV-spectra from 200 nm to 400 nm and the peak values of the chromatographic signals.

Alternaria solani = assay: In vivo preventive test on Alternaria solani (tomato); details: preventive spray, 500 ppm of active ingredient, evaluated 7 days after inoculation
Method: In Vivo Preventive Test on Alternaria Solani (Tomato)
(§1) Solvent: 49 parts by weight of N,N-dimethylformamide
(§2) Emulsifier: 1 part by weight of alkylarylpolyglycolether
(§3) To produce a suitable preparation of active compound, 1 part by weight of active compound is mixed with the stated amounts of solvent and emulsifier, and the concentrate is diluted with water to the desired concentration.
To test for preventive activity, young plants are sprayed with the preparation of active compound at the stated rate of application. One day after this treatment, the plants are inoculated with an aqueous spore suspension of Alternaria solani. The plants remain for one day in an incubation cabinet at approximately 22° C. and a relative atmospheric humidity of 100%. Then the plants are placed in an incubation cabinet at approximately 20° C. and a relative atmospheric humidity of 96%.
The test is evaluated 7 days after the inoculation. 0% means an efficacy which corresponds to that of the untreated control while an efficacy of 100% means that no disease is observed.

Sphaerotheca fuliginea = assay: In vivo preventive test on Sphaerotheca fuliginea (cucumber); details: preventive spray, 500 ppm of active ingredient, evaluated 7 days after inoculation
Method: In Vivo Preventive Test on Sphaerotheca fuliginea (Cucumber)
as §1, §2, §3
To test for preventive activity, young plants are sprayed with the preparation of active compound at the stated rate of application. After the spray coating has dried on, the plants are inoculated with an aqueous spore suspension of Sphaerotheca fuliginea. The plants are then placed in a greenhouse at approximately 23° C. and a relative atmospheric humidity of approximately 70%.
The test is evaluated 7 days after the inoculation. 0% means an efficacy which corresponds to that of the untreated control, while an efficacy of 100% means that no disease is observed.

Pyrenophora teres = assay: In vivo preventive test on Pyrenophora teres (barley); details: preventive spray, 500 ppm of active ingredient, evaluated 7-9 days after inoculation
Method: In Vivo Preventive Test on Pyrenophora teres (Barley)
Solvent: 49 parts by weight of N,N-dimethylacetamid
Emulsifier: 1 part by weight of alkylaryl polyglycol ether
as §3
To test for preventive activity, young plants are sprayed with the preparation of active compound at the stated rate of application. One day after this treatment, the plants are inoculated with an aqueous spore suspension of Pyrenophora teres. The plants remain for 48 hours in an incubation cabinet at 22° C. and a relative atmospheric humidity of 100%. Then the plants are placed in a greenhouse at a temperature of approximately 20° C. and a relative atmospheric humidity of approximately 80%.
The test is evaluated 7-9 days after the inoculation. 0% means an efficacy which corresponds to that of the untreated control while an efficacy of 100% means that no disease is observed.

[2] = HPLC, reversed-phase C 18, 40° C.
[3] = HPLC on reversed-phase column (C 18), 40° C.

logP [1, 2] | logP [1, 3] | Structure (SMILES) | Efficacy (Alternaria solani) [%] | Efficacy (Sphaerotheca fuliginea) [%] | Efficacy (Pyrenophora teres) [%]
3.33 | – | Cn1nc(C(F)F)c(C(=O)NC(c2ccccc2Cl)C(F)(F)F)c1Cl (racemic) [Example 19] | 90 | 84 | –
2.92 | – | CC(NC(=O)c1c(C(F)F)nn(C)c1Cl)c1ccccc1Cl (racemic) [Example 20] | 95 | 94 | 95
– | 3.41 | CC(NC(=O)c1c(C(F)F)nn(C)c1F)c1ccc(OCc2ccccc2)cc1 (racemic) [Example 162] | 100 | 88 | 100
– | 3.46 | CC(NC(=O)c1c(C(F)F)nn(C)c1F)c1ccc(-c2ccccc2)cc1 (racemic) [Example 169] | 94 | 89 | 100
– | 3.19 | CC(NC(=O)c1c(C(F)F)nn(C)c1F)c1ncc(C(F)(F)F)cc1Cl (racemic) [Example 175] | 95 | 95 | 100
– | 3.48 | CC(NC(=O)c1c(C(F)F)nn(C)c1Cl)c1ncc(C(F)(F)F)cc1Cl (racemic) [Example 177] | 90 | 93 | 100
3.63 | – | CCc1ccccc1CN(C(=O)c1c(C(F)F)nn(C)c1F)C1CCC1 [Example 12] | 90 | 95 | 100
3.13 | – | CCc1ccccc1CN(CC)C(=O)c1c(C(F)F)nn(C)c1F [Example 13] | 95 | 90 | 95
2.81 | – | CCc1ccccc1CN(C)C(=O)c1c(C(F)F)nn(C)c1F [Example 15] | 95 | 83 | 95
3.10 | – | C#CCN(Cc1ccccc1CC)C(=O)c1c(C(F)F)nn(C)c1F [Example 17] | 80 | 94 | 100
2.92 | – | Cn1nc(C(F)F)c(C(=O)NC(C)(C)c2ccccc2Cl)c1F [Example 26] | 94 | 88 | –
4.39 | – | CC(NC(=O)c1c(C(F)F)nn(C)c1Cl)c1ccc(Cl)cc1Cl (stereo not drawn) [Example 33] | 95 | 96 | 100
4.39 | – | CC(NC(=O)c1c(C(F)F)nn(C)c1F)c1ccc(Cl)cc1Cl (stereo not drawn) [Example 36] | 94 | 93 | 100
3.89 | – | Cn1nc(C(F)F)c(C(=O)NC2(c3ccc(Cl)cc3Cl)CC2)c1F [Example 38] | 94 | 89 | 95
4.19 | – | Cn1nc(C(F)F)c(C(=O)NC(c2ccc(Cl)cc2Cl)C(F)(F)F)c1F (stereo not drawn) [Example 40] | 94 | 83 | 95
4.39 | – | CC(NC(=O)c1c(C(F)F)nn(C)c1Cl)c1cc(Cl)ccc1Cl (stereo not drawn) [Example 50] | 95 | 98 | 95
4.39 | – | CC(NC(=O)c1c(C(F)F)nn(C)c1F)c1cc(Cl)ccc1Cl (stereo not drawn) [Example 53] | 94 | 95 | 95

logP [1, 2] | logP [1, 3] | Structure (SMILES) | Efficacy (Alternaria solani) [%] | Efficacy (Sphaerotheca fuliginea) [%] | Efficacy (Pyrenophora teres) [%]
3.33 | – | CC(c1cc(Cl)ccc1Cl)N(C)C(=O)c1c(C(F)F)nn(C)c1Cl (stereo not drawn) [Example 55] | 95 | 83 | 100
2.78 | – | Cn1nc(C(F)F)c(C(=O)NCc2ccccc2C2CC2)c1F [Example 65] | 90 | 85 | 94
3.90 | – | CC(C)c1ccccc1CN(C(=O)c1c(C(F)F)nn(C)c1F)C1CCC1 [Example 70] | 90 | 100 | 100
3.66 | – | C=CCN(Cc1ccccc1C(C)C)C(=O)c1c(C(F)F)nn(C)c1F [Example 71] | 95 | 91 | 95
3.37 | – | C#CCN(Cc1ccccc1C(C)C)C(=O)c1c(C(F)F)nn(C)c1F [Example 73] | 95 | 98 | 100
4.63 | – | CC(C)c1ccccc1CN(C(=S)c1c(C(F)F)nn(C)c1F)C1CCC1 [Example 75] | – | 100 | 100
3.49 | – | CC(C)c1ccccc1CN(CC(F)F)C(=O)c1c(C(F)F)nn(C)c1F [Example 78] | 100 | 93 | 100
3.11 | – | CC(NC(=O)c1c(C(F)F)nn(C)c1Cl)c1ccccc1C(F)(F)F (stereo not drawn) [Example 82] | 100 | 94 | 95
2.96 | – | CC(NC(=O)c1c(C(F)F)nn(C)c1F)c1ccccc1C(F)(F)F (stereo not drawn) [Example 84] | 100 | 90 | 100
3.22 | – | CCN(Cc1c(Cl)cccc1C(F)(F)F)C(=O)c1c(C(F)F)nn(C)c1F [Example 91] | 100 | 95 | 95
3.78 | – | CN(Cc1ccccc1[Si](C)(C)C)C(=O)c1c(C(F)F)nn(C)c1F [Example 103] | 90 | 91 | 70
– | 3.65 | Cn1nc(C(F)F)c(C(=O)NC2(c3cccc(C(F)(F)F)c3)CCCC2)c1F [Example 108] | – | 85 | 94
– | 3.73 | Cn1nc(C(F)F)c(C(=O)NC(C)(C)c2cc(Cl)cc(Cl)c2)c1Cl [Example 112] | 80 | 95 | 95
– | 3.65 | CC(c1cc(Cl)cc(Cl)c1)N(C)C(=O)c1c(C(F)F)nn(C)c1Cl (stereo not drawn) [Example 116] | 95 | 75 | 100
– | 3.27 | Cn1nc(C(F)F)c(C(=O)NC2(c3ccc(Cl)c(C(F)(F)F)c3)CC2)c1F [Example 125] | – | 100 | 95
– | 3.79 | CCC(NC(=O)c1c(C(F)F)nn(C)c1Cl)c1ccc(Cl)cc1Cl (stereo not drawn) [Example 191] | 95 | 100 | 100
– | 3.61 | CCC(NC(=O)c1c(C(F)F)nn(C)c1F)c1ccc(Cl)cc1Cl (stereo not drawn) [Example 192] | 95 | 100 | 100

Structure (SMILES) | logP [1, 2] | logP [1, 3] | Efficacy (Alternaria solani) [%] | Efficacy (Sphaerotheca fuliginea) [%] | Efficacy (Pyrenophora teres) [%]
CC(NC(=O)c1c(C(F)F)nn(C)c1F)c1ccccc1Cl (racemic) [Example 24] | 2.75 | – | 94 | 89 | 100
